Data reported in the supplement of paper PMC8960247.
Where a name gives a salt, the structure may show the parent alone. ± gives the standard error.

What was measured:
621-102 (TSC2-deficient) = experiment: relative viability vs DMSO; higher = less cytotoxic; conditions: serum: 10% FBS, 72 h
621-103 (TSC2-rescued) = experiment: as above; conditions: serum: 10% FBS, 72 h
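Further: immortalized renal angiomyolipoma cells stably carrying empty vector or TSC2, dosed in 384-well plates in DMEM, viability normalized to vehicle-treated wells within each plate.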

SMILES | relative viability (621-102 (TSC2-deficient); 0.0001 µM) | relative viability (621-102 (TSC2-deficient); 0.001 µM) | relative viability (621-102 (TSC2-deficient); 0.01 µM) | relative viability (621-102 (TSC2-deficient); 0.1 µM) | relative viability (621-102 (TSC2-deficient); 1 µM) | relative viability (621-102 (TSC2-deficient); 10 µM) | relative viability (621-103 (TSC2-rescued); 0.0001 µM) | relative viability (621-103 (TSC2-rescued); 0.001 µM) | relative viability (621-103 (TSC2-rescued); 0.01 µM) | relative viability (621-103 (TSC2-rescued); 0.1 µM) | relative viability (621-103 (TSC2-rescued); 1 µM) | relative viability (621-103 (TSC2-rescued); 10 µM)
C[C@H](N[C@@H](CCc1ccccc1)C(=O)O)C(=O)N1CCC[C@H]1C(=O)O [Enalaprilat] | 97.6 ± 3.3% | 100 ± 4.3% | 96.26 ± 0.64% | 98.48 ± 0.16% | 95.91 ± 0.29% | 101.3 ± 0.23% | 101 ± 4% | 101.1 ± 0.31% | 95.29 ± 0.25% | 98.36 ± 0.18% | 101 ± 2.5% | 96.34 ± 0.17%
CCN(CC)CCOc1ccc(C(=C(Cl)c2ccccc2)c2ccccc2)cc1 [Clomifene citrate (Serophene)] | 108 ± 1.1% | 105 ± 6% | 104 ± 3.9% | 102 ± 2.1% | 105 ± 1.7% | 58.6 ± 10% | 102 ± 3.5% | 99.3 ± 1.9% | 97.2 ± 5.9% | 96.14 ± 0.13% | 101 ± 4.7% | 14 ± 0.71%
O=c1oc2cc(O)ccc2s1 [Tioxolone] | 103 ± 7.6% | 105.7 ± 0.97% | 105 ± 4% | 94.8 ± 1.4% | 104 ± 2.6% | 99.31 ± 0.92% | 71.1 ± 7.9% | 80 ± 6.3% | 75.42 ± 0.21% | 80.9 ± 4.5% | 71.5 ± 8.5% | 60.9 ± 5%
Nc1ncnc2c1c(-c1cnc3[nH]ccc3c1)nn2C1CCCC1 [PP-121] | 102 ± 4.8% | 97.7 ± 2.4% | 89.2 ± 0.2% | 85 ± 1.9% | 56.4 ± 0.66% | 5.4 ± 0.81% | 104.1 ± 0.76% | 103 ± 2.2% | 99.74 ± 0.75% | 86.8 ± 3.6% | 41.5 ± 1.9% | 10.2 ± 0.22%
CN(C)CCCN1c2ccccc2Sc2ccc(Cl)cc21 [Chlorpromazine HCl] | 88.27 ± 0.79% | 87.9 ± 6.9% | 93.3 ± 8.6% | 101 ± 8.9% | 101 ± 7.6% | 81.9 ± 3.2% | 97.7 ± 3.2% | 92.6 ± 5.6% | 95.67 ± 0.89% | 102 ± 6.1% | 91.8 ± 4.6% | 63.7 ± 4.6%
NC12CC3CC(CC(C3)C1)C2 [Amantadine HCl (Symmetrel)] | 97.2 ± 2.8% | 96.9 ± 4.5% | 94.9 ± 3.8% | 98.5 ± 3.3% | 100.9 ± 0.5% | 98.09 ± 0.17% | 92.2 ± 5.4% | 98.7 ± 2.9% | 106 ± 2.3% | 111 ± 3.6% | 108 ± 1.8% | 96.89 ± 0.4%
OC(CNCC(O)C1CCc2cc(F)ccc2O1)C1CCc2cc(F)ccc2O1 (stereo not given) [Nebivolol HCl] | 81.745 ± 0.015% | 103 ± 2.9% | 106 ± 1.1% | 118 ± 7.1% | 106 ± 2.9% | 77.1 ± 11% | 86.6 ± 8.6% | 116.1 ± 0.89% | 114.3 ± 0.92% | 120 ± 2.8% | 108 ± 4.2% | 36.4 ± 5.6%
CC1=C(C(=O)Nc2cc3cn[nH]c3cc2F)C(c2ccc(C(F)(F)F)cc2)CC(=O)N1 (stereo not given) | 121 ± 2.4% | 104 ± 2.5% | 104.73 ± 0.024% | 108 ± 2% | 106 ± 2.2% | 85.826 ± 0.053% | 99 ± 0.99% | 98.74 ± 0.16% | 101 ± 3.5% | 101.2 ± 0.43% | 99.79 ± 0.91% | 96.4 ± 2.7%
CC(C)C(=O)Oc1ccc(CO)cc1[C@H](CCN(C(C)C)C(C)C)c1ccccc1 [Fesoterodine fumarate (Toviaz)] | 97.3 ± 5.3% | 100.52 ± 0.035% | 102 ± 1.2% | 109 ± 3.6% | 93.13 ± 0.096% | 94.5 ± 1.9% | 104 ± 1.1% | 105 ± 3% | 106 ± 2.1% | 107 ± 5.6% | 101.2 ± 0.67% | 95.413 ± 0.0029%
CCCNC(=O)Nc1ccc(Oc2ncnc3cc(OC)c(OC)cc23)cc1Cl [KRN 633] | 84.4 ± 4.7% | 119 ± 2.7% | 104 ± 12% | 94.6 ± 3.8% | 100 ± 2.7% | 102 ± 1.3% | 85.6 ± 4.4% | 95.9 ± 4.2% | 100 ± 3% | 96.9 ± 1.9% | 90.3 ± 3.6% | 99.8 ± 3.4%
Cn1cc(C2=C(c3ccc(Cl)cc3Cl)C(=O)NC2=O)c2ccccc21 | 107.48 ± 0.025% | 103 ± 2.8% | 98.2 ± 1.1% | 90.4 ± 5.3% | 96.83 ± 0.6% | 97.5 ± 1.9% | 77.6 ± 1.8% | 84.2 ± 1.4% | 89.8 ± 2.4% | 92.5 ± 5.7% | 80.2 ± 1.9% | 76.2 ± 6.7%
CCOC(=O)C1=C(C)NC(C)=C(C(=O)OC)C1c1cccc(Cl)c1Cl (stereo not given) [Felodipine] | 103 ± 2.2% | 97.3 ± 5.4% | 101 ± 4.7% | 103 ± 1.5% | 106 ± 1.6% | 117 ± 4.6% | 104.4 ± 0.74% | 100.1 ± 0.68% | 104 ± 3.1% | 98.2 ± 1.4% | 100 ± 1.6% | 106 ± 2.3%
C[C@]12CCC(=O)C(O)=C1CC[C@@H]1[C@@H]2CC[C@]2(C)C(=O)CC[C@@H]12 [Formestane] | 105 ± 1.1% | 113 ± 3.5% | 120 ± 4.2% | 94.73 ± 0.3% | 98.9 ± 1.5% | 109 ± 0.99% | 105 ± 4% | 102.8 ± 0.63% | 105.2 ± 0.81% | 102 ± 1.2% | 101 ± 3.9% | 102.4 ± 0.89%
CC(C)Cc1ccc(C(C)C(=O)O)cc1 (stereo not given) [Ibuprofen] | 102.6 ± 0.15% | 109 ± 5.4% | 114 ± 1.2% | 112.4 ± 0.85% | 106 ± 1.3% | 104 ± 3.3% | 105.8 ± 0.48% | 99.2 ± 0.35% | 101 ± 0.81% | 99.61 ± 0.82% | 98.25 ± 0.82% | 98.82 ± 0.41%
CCOc1cc2ncc(C#N)c(Nc3ccc(F)c(Cl)c3)c2cc1NC(=O)/C=C/CN(C)C [Pelitinib] | 104 ± 2.2% | 107.2 ± 0.9% | 121.9 ± 0.77% | 107 ± 4% | 80.44 ± 0.46% | 25.2 ± 3.6% | 102 ± 1.2% | 101 ± 1.5% | 100.5 ± 0.68% | 98.7 ± 3% | 65.38 ± 0.34% | 19.6 ± 1.3%
CN1CCC(CNc2ccc3ncc(-c4cccc(OC(F)(F)F)c4)n3n2)CC1 [SGI-1776] | 93.93 ± 0.059% | 110 ± 1.1% | 98.6 ± 2.4% | 96.61 ± 0.13% | 86.6 ± 1.3% | 0.96 ± 0.17% | 94.08 ± 0.52% | 101 ± 1.6% | 101 ± 1.6% | 98.8 ± 2.8% | 82.6 ± 2% | 0.884 ± 0.13%
CC(=O)Nc1nc(C)c(-c2ccc(Cl)c(S(=O)(=O)NCCO)c2)s1 [PIK-93] | 94.69 ± 0.6% | 106 ± 2.8% | 115 ± 0.89% | 112 ± 3.2% | 113.97 ± 0.11% | 82.8 ± 0.53% | 102.7 ± 0.19% | 102 ± 1.3% | 98.7 ± 1.2% | 100.8 ± 1% | 102 ± 1.7% | 74.3 ± 1.8%
CNC(=O)Nc1ccc(-c2nc(N3CC4CCC(C3)O4)c3cnn(C4CCC5(CC4)OCCO5)c3n2)cc1 | 97.36 ± 0.31% | 93.4 ± 2.7% | 76.3 ± 3.4% | 37.41 ± 0.17% | 25.6 ± 0.73% | 9.06 ± 0.58% | 108 ± 6.1% | 95.7 ± 2.1% | 73.8 ± 4.8% | 44.1 ± 1.1% | 34.1 ± 0.59% | 22 ± 0.064%
O=c1n(CCCN2CCN(c3cccc(Cl)c3)CC2)nc2ccccn12 [Trazodone HCl] | 103 ± 1.2% | 103 ± 1.8% | 105 ± 2.1% | 99.8 ± 4.6% | 107 ± 1.8% | 103 ± 4.7% | 77.1 ± 6.5% | 84.3 ± 2.8% | 84.8 ± 4% | 86.6 ± 3.6% | 68.2 ± 3.2% | 63.7 ± 7.5%
Cc1nc(-c2ccc(OCC(C)C)c(C#N)c2)sc1C(=O)O [Febuxostat] | 104 ± 2.3% | 104 ± 2.4% | 102.5 ± 0.48% | 105 ± 5.9% | 100.8 ± 0.75% | 99.9 ± 2.2% | 104 ± 2.5% | 100.5 ± 0.98% | 101 ± 2.4% | 102 ± 4% | 98.3 ± 0.27% | 101.3 ± 0.28%
